Experimental data as given in patent US9693997B2, “Antiviral compounds” (priority 2013, dated 2017).
Where a name gives a salt, the structure may show the parent alone.

How the values were obtained:
[1] = test system: Pseudotyped HCV GT1b particles (HCVpp), entry into Huh7-high CD81 cells; experiment: microbe, parasite or virus in culture; type: cell-based, HCV GT1b Con1 strain; conditions: Hepatitis C virus, GT1B, 72 h, read-out: HCVpp GT-1b (EC50, μM)
[2] = test system: pseudotyped VSV G particles (VSVpp) in Huh7-high CD81 cells; experiment: microbe, parasite or virus in culture; type: cell-based, vesicular stomatitis virus; conditions: Vesicular stomatitis virus, 72 h, read-out: VSVpp (EC50, μM)

SMILES	EC50 [1] [µM]	EC50 [2] [µM]
Nc1nc(Nc2cc(Cl)c(-c3ccc(OC4CCNCC4)cc3)c(C(F)(F)F)c2)n[nH]1 [Compound 139, N*3*-[6-Chloro-4′-(piperidin-4-yloxy)-2-trifluoromethyl-biphenyl-4-yl]-1H-[1,2,4]triazole-3,5-diamine hydrochloride]	0.042	5.66
NCCOc1ccc(-c2c(Cl)cc(Nc3n[nH]c(N)n3)cc2C(F)(F)F)cc1 [Compound 135, N*3*-[4′-(2-Amino-ethoxy)-6-chloro-2-trifluoromethyl-biphenyl-4-yl]-1H-[1,2,4]-triazole-3,5-diamine hydrochloride]	0.077	> 10
Nc1n[nH]c(Nc2cc(F)c(-c3ccc4ccccc4c3)c(C(F)(F)F)c2)n1 [Compound 249, N^5-(3-Fluoro-4-naphthalen-2-yl-5-trifluoromethylphenyl)-1H-[1,2,4]-triazole-3,5-diamine]	0.991	17.2
CSc1ccc(-c2ccc(Nc3n[nH]c(N)n3)cc2Cl)c(F)c1 [Compound 156, N*3*-(2-Chloro-2′-fluoro-4′-methylsulfanyl-biphenyl-4-yl)-1H-[1,2,4]triazole-3,5-diamine]	3.77	11.3
Nc1nc(Nc2cc(Cl)c(-c3ccc(OCC(=O)O)cc3)c(Cl)c2)n[nH]1 [Compound 285, [4′-(5-Amino-1H-[1,2,4]triazol-3-ylamino)-2′,6′-dichloro-biphenyl-4-yloxy]-acetic acid]	4.97	> 10
CC(C)(C)OC(=O)N1CCC(Oc2ccc(-c3c(Cl)cc(Nc4n[nH]c(N)n4)cc3Cl)cc2)CC1 [Compound 268, 4-[4′-(5-Amino-1H-[1,2,4]triazol-3-ylamino)-2′,6′-dichloro-biphenyl-4-yloxy]-piperidine-1-carboxylic acid tert-butyl ester]	0.17	> 10
COc1ccc(-c2c(Cl)cc(Nc3n[nH]c(N)n3)cc2C(F)(F)F)cc1OC(C)C [Compound 229, N*3*-(6-Chloro-3′-isopropoxy-4′-methoxy-2-trifluoromethyl-biphenyl-4-yl)-1H-[1,2,4]triazole-3,5-diamine]	0.072	6.47
COc1ccc(-c2c(Cl)cc(Nc3n[nH]c(N)n3)cc2C(F)(F)F)cc1S(=O)(=O)NC1(C)CNC1 [Compound 215, 4′-(5-amino-1H-1,2,4-triazol-3-ylamino)-2′-chloro-4-methoxy-N-(3-methylazetidin-3-yl)-6′-(trifluoromethyl)biphenyl-3-sulfonamide hydrochloride]	0.111	> 10
CC(C)S(=O)(=O)c1ccc(-c2c(F)cc(Nc3nc(N)n[nH]3)cc2C(F)(F)F)cc1 [Compound 71, N^5-[6-Fluoro-4′-(propane-2-sulfonyl)-2-trifluoromethyl-biphenyl-4-yl]-1H-[1,2,4]-triazole-3,5-diamine]	0.153	> 10
CC(C)(C)N(CC(F)(F)F)S(=O)(=O)c1ccc(-c2c(Cl)cc(Nc3n[nH]c(N)n3)cc2C(F)(F)F)cc1 [Compound 223, 4′-(5-Amino-1H-[1,2,4]triazol-3-ylamino)-6′-chloro-2′-trifluoromethyl-biphenyl-4-sulfonic acid tert-butyl-(2,2,2-trifluoro-ethyl)-amide]	0.029	9.8
Nc1nc(Nc2cc(Cl)c(-c3ccc(S(=O)(=O)N4CCOCC4)cc3)c(C(F)(F)F)c2)n[nH]1 [Compound 36, N*3*-[2-Chloro-4′-(morpholine-4-sulfonyl)-6-trifluoromethyl-biphenyl-4-yl]-1H-[1,2,4]triazole-3,5-diamine]	0.096	14.2
CC(C)(C)OC(=O)COc1ccc(-c2c(Cl)cc(Nc3n[nH]c(N)n3)cc2Cl)cc1 [Compound 276, [4′-(5-Amino-1H-[1,2,4]triazol-3-ylamino)-2′,6′-dichloro-biphenyl-4-yloxy]-acetic acid tert-butyl ester]	0.168	> 10
CNCCOc1ccc(-c2c(Cl)cc(Nc3n[nH]c(N)n3)cc2C(F)(F)F)cc1 [Compound 126, N*3*-[6-Chloro-4′-(2-methylamino-ethoxy)-2-trifluoromethyl-biphenyl-4-yl]-1H-[1,2,4]triazole-3,5-diamine hydrochloride]	0.088	> 10
COc1ccc(-c2c(Cl)cc(Nc3n[nH]c(N)n3)cc2C(F)(F)F)cc1S(=O)(=O)NC1CCN(C(=O)OC(C)(C)C)CC1 [Compound 221, 4-[4′-(5-Amino-1H-[1,2,4]triazol-3-ylamino)-6′-chloro-4-methoxy-2′-trifluoromethyl-biphenyl-3-sulfonylamino]-piperidine-1-carboxylic acid tert-butyl ester]	0.003	4.55
Cc1ccc(-c2c(Cl)cc(Nc3n[nH]c(N)n3)cc2C(F)(F)F)cc1S(=O)(=O)NC(C)(C)C [Compound 18, 4′-(5-Amino-1H-[1,2,4]triazol-3-ylamino)-2′-chloro-4-methyl-6′-trifluoromethyl-biphenyl-3-sulfonic acid tert-butylamide]	0.032	3.47
CS(=O)(=O)n1ccc2cc(-c3c(Cl)cc(Nc4n[nH]c(N)n4)cc3Cl)ccc21 [Compound 42, N*3*-[3,5-Dichloro-4-(1-methanesulfonyl-1H-indol-5-yl)-phenyl]-1H-[1,2,4]triazole-3,5-diamine]	0.212	2.27
Nc1n[nH]c(Nc2cc(Cl)c(-c3ccc(OC4CCCNC4)cc3)c(Cl)c2)n1 (stereo not drawn) [Compound 259]	0.089	4.27
Nc1nc(Nc2cc(Cl)c(-c3ccc(S(=O)(=O)NC[C@@H]4CCCN4)cc3)c(C(F)(F)F)c2)n[nH]1 [Compound 27, 4′-(5-Amino-1H-[1,2,4]triazol-3-ylamino)-2′-chloro-6′-trifluoromethyl-biphenyl-4-sulfonic acid ((S)-1-pyrrolidin-2-ylmethyl)-amide; hydrochloride]	0.052	30.1
CN1C(C)(C)CC(Sc2ccc(-c3c(Cl)cc(Nc4n[nH]c(N)n4)cc3C(F)(F)F)cc2)CC1(C)C [Compound 127, N*3*-[6-Chloro-4′-(1,2,2,6,6-pentamethyl-piperidin-4-ylsulfanyl)-2-trifluoromethyl-biphenyl-4-yl]-1H-[1,2,4]triazole-3,5-diamine]	0.144	9.69
CC(C)(C)OC(=O)N1CCCC(S(=O)(=O)c2ccc(-c3c(Cl)cc(Nc4n[nH]c(N)n4)cc3C(F)(F)F)cc2)C1 (stereo not drawn) [Compound 6, 3-[4′-(5-Amino-1H-[1,2,4]triazol-3-ylamino)-2′-chloro-6′-trifluoromethyl-biphenyl-4-sulfonyl]-piperidine-1-carboxylic acid tert-butyl ester]	0.008	2.56
N#Cc1ccc(-c2c(F)cc(Nc3nc(N)n[nH]3)cc2C(F)(F)F)cc1 [Compound 79, 4′-(5-Amino-2H-[1,2,4]-triazol-3-ylamino)-6′-fluoro-2′-trifluoromethyl-biphenyl-4-carbonitrile]	0.483	8.11
CN(C)S(=O)(=O)c1cccc(-c2c(Cl)cc(Nc3n[nH]c(N)n3)cc2C(F)(F)F)c1 [Compound 198, 4′-(5-amino-1H-1,2,4-triazol-3-ylamino)-2′-chloro-N,N-dimethyl-6′-(trifluoromethyl)biphenyl-3-sulfonamide]	0.268	21.3
Nc1nc(Nc2cc(Cl)c(-c3ccc(S(=O)(=O)NCCO)cc3)c(C(F)(F)F)c2)n[nH]1 [Compound 161, 4′-(5-Amino-1H-[1,2,4]triazol-3-ylamino)-2′-chloro-6′-trifluoromethyl-biphenyl-4-sulfonic acid (2-hydroxy-ethyl)-amide]	0.058	26.8
Nc1nc(Nc2cc(Cl)c(-c3ccc(S(=O)(=O)NC4CC(O)C4)cc3)c(C(F)(F)F)c2)n[nH]1 (stereo not drawn) [Compound 172, 4′-(5-amino-1H-1,2,4-triazol-3-ylamino)-2′-chloro-N-(3-hydroxycyclobutyl)-6′-(trifluoromethyl)biphenyl-4-sulfonamide]	0.032	45.1
Nc1nc(Nc2cc(Cl)c(-c3ccc(S(=O)(=O)NCCO)cc3)c(Cl)c2)n[nH]1 [Compound 160, 4′-(5-Amino-1H-[1,2,4]triazol-3-ylamino)-2′,6′-dichloro-biphenyl-4-sulfonic acid (2-hydroxy-ethyl)-amide]	0.063	10.6
Nc1nc(Nc2cc(Cl)c(-c3ccc4[nH]ncc4c3)c(Cl)c2)n[nH]1 [Compound 257, N-3-[3′,5′-dichlorophenyl-4′-(1H-indazol-5-yl)-phenyl]-1H-[1,2,4]triazole-3,5-diamine]	0.343	2.73
CN(C(C)(C)C)S(=O)(=O)c1cccc(-c2c(Cl)cc(Nc3n[nH]c(N)n3)cc2C(F)(F)F)c1 [Compound 196, 4′-(5-amino-1H-1,2,4-triazol-3-ylamino)-N-tert-butyl-2′-chloro-N-methyl-6′-(trifluoromethyl)biphenyl-3-sulfonamide]	0.126	> 10
Nc1nc(Nc2cc(Cl)c(-c3ccc(OCCN4CCOCC4)cc3)c(Cl)c2)n[nH]1 [Compound 281, N*3*-[2,6-Dichloro-4′-(2-morpholin-4-yl-ethoxy)-biphenyl-4-yl]-1H-[1,2,4]triazole-3,5-diamine]	0.244	23.4
Nc1nc(Nc2cc(Cl)c(-c3ccc(Cl)cc3Cl)c(Cl)c2)n[nH]1 [Compound 124, N-3-(2,6,2′,4′-Tetrachloro-biphenyl-4-yl)-1H-[1,2,4]triazole-3,5-diamine]	1.01	4.49
CNC(=O)c1cccc(-c2c(F)cc(Nc3nc(N)n[nH]3)cc2C(F)(F)F)c1 [Compound 248, 4′-(5-Amino-2H-[1,2,4]-triazol-3-ylamino)-6′-fluoro-2′-trifluoromethyl-biphenyl-43-carboxylic acid methylamide]	1.02	> 10
